Assay results from US10428045B2, “Benzazepine compounds, conjugates, and uses thereof” (Silverback Therapeutics, Inc., priority 2017, dated 2019).
Structures can show the parent of a compound that is named as a salt.

Assays:
Format in all cases: cell-based
hTLR8 = molecular target: T1, hTLR8 (Homo sapiens, UniProt Q9NR97); test: TLR7/TLR8 reporter assay, HEK-Blue hTLR8 reporter cells; details: 17 hours, optical density at 640 nm
T1 construct: host or cells: HEK-Blue hTLR8 (HEK293-derived reporter cell line)
T1 sequence (Q9NR97 27-1041): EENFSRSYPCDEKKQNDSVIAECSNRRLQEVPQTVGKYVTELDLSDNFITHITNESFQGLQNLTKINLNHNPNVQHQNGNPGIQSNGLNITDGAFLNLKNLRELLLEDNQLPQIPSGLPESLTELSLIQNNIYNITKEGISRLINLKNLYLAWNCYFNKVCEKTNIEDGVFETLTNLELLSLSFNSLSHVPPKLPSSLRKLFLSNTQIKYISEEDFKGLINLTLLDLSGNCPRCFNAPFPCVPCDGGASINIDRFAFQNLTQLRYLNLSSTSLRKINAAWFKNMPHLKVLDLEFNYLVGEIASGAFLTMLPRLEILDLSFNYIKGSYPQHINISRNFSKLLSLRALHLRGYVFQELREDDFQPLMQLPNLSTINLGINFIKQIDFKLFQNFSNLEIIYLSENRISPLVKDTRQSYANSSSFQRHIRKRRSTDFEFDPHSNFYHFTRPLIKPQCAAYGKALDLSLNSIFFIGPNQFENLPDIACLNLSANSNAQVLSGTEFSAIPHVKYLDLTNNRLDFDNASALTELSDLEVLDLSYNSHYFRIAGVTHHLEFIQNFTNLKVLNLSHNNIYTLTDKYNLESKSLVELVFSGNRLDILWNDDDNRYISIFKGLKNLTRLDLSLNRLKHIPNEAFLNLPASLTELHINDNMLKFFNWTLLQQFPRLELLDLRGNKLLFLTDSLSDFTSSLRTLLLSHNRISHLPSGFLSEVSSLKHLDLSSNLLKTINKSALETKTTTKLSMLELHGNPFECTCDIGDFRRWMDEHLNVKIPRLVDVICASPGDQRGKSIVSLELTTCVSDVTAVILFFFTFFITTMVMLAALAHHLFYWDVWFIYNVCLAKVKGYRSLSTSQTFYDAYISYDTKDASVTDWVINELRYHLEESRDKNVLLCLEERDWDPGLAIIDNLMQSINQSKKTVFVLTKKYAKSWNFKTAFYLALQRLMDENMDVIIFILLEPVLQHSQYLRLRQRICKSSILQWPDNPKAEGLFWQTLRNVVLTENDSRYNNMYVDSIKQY
Procedure: (§1) Reporter cells lines (namely HEK-Blue Null1, HEK-Blue hTLR7 and HEK-Blue hTLR8) are obtained from InvivoGen. Cells are passed/expanded/stored in liquid nitrogen per supplier's instruction. The cells are typically split twice per week in the growth media of DMEM supplemented with 10% fetal bovine serum, 1× NEAA, 1 mM Pyruvate, 2 mM glutamine, 50 μg/mL penicillin, 50 U/mL streptomycin (each from Gibco) in the presence of the following antibiotics, as shown in Table 3:
(§2) Test samples (at desired concentrations diluted in DMEM) are added to the 96-well assay plate, 20 μL per well. Reporter cells are harvested from the tissue culture flasks by incubation in PBS at 37° C. for two minutes after the media in the flask is removed and cells rinsed with PBS. Cells are counted and diluted in the HEK-Blue Detection media at 0.22×10^6 cells/mL. Then 180 μL of cells are added to the assay plate containing the 20 μL of test samples, and incubated for 17 hours at 37° C. in a 5% CO2 humidified incubator. Optical density at 640 nm is analyzed using an Envision (Perkin Elmer) plate reader.

hTLR7 = molecular target: T2, hTLR7 (Homo sapiens, UniProt Q9NYK1); test: TLR7/TLR8 reporter assay, HEK-Blue hTLR7 reporter cells; details: 17 hours, optical density at 640 nm
T2 construct: host or cells: HEK-Blue hTLR7 (HEK293-derived reporter cell line)
T2 sequence (Q9NYK1 27-1049): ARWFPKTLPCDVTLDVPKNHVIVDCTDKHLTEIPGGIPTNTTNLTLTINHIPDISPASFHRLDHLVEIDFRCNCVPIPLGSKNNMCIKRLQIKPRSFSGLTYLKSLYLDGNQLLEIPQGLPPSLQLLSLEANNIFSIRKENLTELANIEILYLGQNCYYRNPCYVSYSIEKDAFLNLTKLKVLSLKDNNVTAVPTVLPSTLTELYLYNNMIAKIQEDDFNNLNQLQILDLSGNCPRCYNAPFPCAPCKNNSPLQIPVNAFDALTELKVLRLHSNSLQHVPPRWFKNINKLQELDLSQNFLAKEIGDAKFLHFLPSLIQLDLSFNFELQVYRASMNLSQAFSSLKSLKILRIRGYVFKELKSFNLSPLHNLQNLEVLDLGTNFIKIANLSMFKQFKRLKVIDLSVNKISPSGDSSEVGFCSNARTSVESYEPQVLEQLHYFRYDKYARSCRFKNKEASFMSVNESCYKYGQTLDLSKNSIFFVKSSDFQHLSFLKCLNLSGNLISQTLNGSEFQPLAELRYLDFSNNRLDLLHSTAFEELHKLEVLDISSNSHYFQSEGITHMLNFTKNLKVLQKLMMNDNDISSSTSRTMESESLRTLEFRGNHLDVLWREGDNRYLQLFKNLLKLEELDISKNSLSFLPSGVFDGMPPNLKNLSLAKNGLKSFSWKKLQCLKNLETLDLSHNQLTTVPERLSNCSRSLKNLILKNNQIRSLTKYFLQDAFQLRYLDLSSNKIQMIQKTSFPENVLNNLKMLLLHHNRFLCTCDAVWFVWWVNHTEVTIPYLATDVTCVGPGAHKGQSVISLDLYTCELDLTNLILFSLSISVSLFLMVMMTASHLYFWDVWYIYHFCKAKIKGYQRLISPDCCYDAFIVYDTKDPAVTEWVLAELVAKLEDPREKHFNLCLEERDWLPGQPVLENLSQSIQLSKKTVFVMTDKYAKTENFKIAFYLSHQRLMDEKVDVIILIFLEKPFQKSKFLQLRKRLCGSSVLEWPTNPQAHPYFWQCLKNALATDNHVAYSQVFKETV
Procedure: as §1, §2

[1] = tested on: Human peripheral blood mononuclear cells (PBMC); test: PBMC screening assay, TNF-α in supernatant; details: TNF-α in supernatant of human PBMC, 24 hours, ELISA or HTRF
Procedure: Human peripheral blood mononuclear cells (PBMC) were obtained from BenTek, frozen at 25×10^6 cell/mL in 10% DMSO (Sigma) prepared in fetal bovine serum (Gibco) and stored in liquid nitrogen. For culture PBMC were thawed quickly in a 37° C. water bath and diluted into pre-warmed RPMI 1640 (Lonza) supplemented with 10% fetal bovine serum, 2 mM glutamine, 50 μg/mL penicillin, 50 U/mL streptomycin (all from Gibco) and centrifuged for 5 minutes at 500×g. PBMC were suspended into the growth media described above and cultured at a concentration of 1×10^6 cells per mL at 37° C. in a 5% CO2 incubator.
PBMC were thawed, suspended at a concentration of 1×10^6 cell/mL in growth media and 200 μL was aliquoted into each well of a 96-well plate for a total of 0.2×10^6 cells per well. PBMC were incubated for 16-18 hours at 37° C. in a 5% CO2 humidified incubator. The following day PBMC plates were centrifuged at 500×g for 5 minutes and the growth media was removed. 150 μL of twelve concentrations ranging from 1000 to 0.000238 nM of small molecules prepared in growth media were added to PBMC in duplicate and incubated for 24 hours at 37° C. in a 5% CO2 incubator. Prior to supernatant harvest, cells were spun at 500×g for 5 minutes to remove cell debris. TNF-α activity was assessed in the supernatant by ELISA (eBioscience) or HTRF (CisBio) per the manufacturer's instructions. Optical density at 450 nm and 570 nm (ELISA) or luminescence (HTRF) was analyzed using an Envision (Perkin Elmer) plate reader, as shown in Table 5.

Row | SMILES | EC50 (hTLR8) | EC50 (hTLR7) | EC50 [1]
1 | CCCN(CCC)C(=O)C1=Cc2ccc(C(=O)Nc3cncc(CNC(=O)[C@@H](NC(=O)OCc4ccccc4)C(C)C)c3)cc2N=C(N)C1 [Compound 1.15, benzyl (S)-(1-(((5-(2-amino-4-(dipropyl-carbamoyl)-3H-benzo[b]azepine-8-carboxamido)pyridin-3-yl)methyl)amino)-3-methyl-1-oxobutan-2-yl)carbamate] | < 500 nM | > 1000 nM | 
2 | CCCN(CCC)C(=O)C1=Cc2ccc(C(=O)Nc3cncc(CNC(=O)[C@H](Cc4ccccc4)NC(=O)OCc4ccccc4)c3)cc2N=C(N)C1 [Compound 1.16, benzyl (S)-(1-(((5-(2-amino-4-(dipropyl-carbamoyl)-3H-benzo[b]azepine-8-carboxamido)pyridin-3-yl)methyl)amino)-1-oxo-3-phenylpropan-2-yl)carbamate] | 500 to 1000 nM | > 1000 nM | 
3 | CCCN(CCC)C(=O)C1=Cc2ccc(C(=O)Nc3cncc(CNC(=O)[C@@H]4CCCN4C(=O)OCc4ccccc4)c3)cc2N=C(N)C1 [Compound 1.17, benzyl (S)-2-(((5-(2-amino-4-(dipropyl-carbamoyl)-3H-benzo[b]azepine-8-carboxamido)pyridin-3-yl)methyl)carbamoyl)pyrrolidine-1-carboxylate] | < 500 nM | > 1000 nM | 
4 | CCCN(CCC)C(=O)C1=Cc2ccc(C(=O)Nc3cccc([C@H]4CN(Cc5ccccc5)C[C@@H]4C(=O)OC)c3)cc2N=C(N)C1 [Compound 1.18, methyl (3R,4S)-4-(3-(2-amino-4-(dipropylcarbamoyl)-3H-benzo[b]azepine-8-carboxamido)phenyl)-1-benzylpyrrolidine-3-carboxylate trifluoroacetate salt] | > 1000 nM | > 1000 nM | 
5 | CCCN(CCC)C(=O)C1=Cc2ccc(C(=O)Nc3cnc4c(c3)CN(Cc3ccccc3)CC4)cc2N=C(N)C1 [Compound 1.48, 2-amino-N^8-(6-benzyl-5,6,7,8-tetrahydro-1,6-naphthyridin-3-yl)-N^4,N^4-dipropyl-3H-benzo[b]azepine-4,8-dicarboxamide] |  |  | < 500 nM
6 | CCCN(CCC)C(=O)C1=Cc2ccc(C(=O)NCC3OB(O)c4cc(NC(=O)OCc5ccccc5)ccc43)cc2N=C(N)C1 (centres unmarked) [Compound 1.49, benzyl (3-((2-amino-4-(dipropylcarbamoyl)-3H-benzo[b]azepine-8-carboxamido)methyl)-1-hydroxy-1,3-dihydrobenzo[c][1,2]oxaborol-6-yl)carbamate TFA salt] |  |  | 500 to 1000 nM
7 | CCCN(CCC)C(=O)C1=Cc2ccc(C(=O)Nc3cnc4c(c3)CNCC4)cc2N=C(N)C1 [Compound 1.50, 2-amino-N^4,N^4-dipropyl-N^8-(5,6,7,8-tetrahydro-1,6-naphthyridin-3-yl)-3H-benzo[b]azepine-4,8-dicarboxamide] |  |  | < 500 nM
8 | CCCN(CCC)C(=O)C1=Cc2ccc(C(=O)Nc3cncc(CNC(=O)[C@@H](N)C(C)C)c3)cc2N=C(N)C1 [Compound 1.51, (S)-2-amino-N^8-(5-((2-amino-3-methylbutanamido)methyl)pyridin-3-yl)-N^4,N^4-dipropyl-3H-benzo[b]azepine-4,8-dicarboxamide] |  |  | 1000 to 3000 nM
9 | CCCN(CCC)C(=O)C1=Cc2ccc(C(=O)Nc3ccc(N4CCCC(N)C4)nc3)cc2N=C(N)C1 (centres unmarked) [Compound 1.56, 2-amino-N^8-(6-(3-aminopiperidin-1-yl)pyridin-3-yl)-N^4,N^4-dipropyl-3H-benzo[b]azepine-4,8-dicarboxamide] |  |  | 1000 to 3000 nM
10 | CCCN(CCC)C(=O)C1=Cc2ccc(C(=O)Nc3ccc(N4CCC(N)CC4)nc3)cc2N=C(N)C1 [Compound 1.57, 2-amino-N^8-(6-(4-aminopiperidin-1-yl)pyridin-3-yl)-N^4,N^4-dipropyl-3H-benzo[b]azepine-4,8-dicarboxamide tris HCl salt] |  |  | < 500 nM
11 | CCCN(CCC)C(=O)C1=Cc2ccc(C(=O)Nc3cncc(C4CCNC4)c3)cc2N=C(N)C1 (centres unmarked) [Compound 1.58, 2-amino-N^4,N^4-dipropyl-N^8-(5-(pyrrolidin-3-yl)pyridin-3-yl)-3H-benzo[b]azepine-4,8-dicarboxamide] |  |  | 500 to 1000 nM
12 | CCCN(CCC)C(=O)C1=Cc2ccc(NC(=O)c3cccnc3)cc2N=C(N)C1 [Compound 1.62, 2-amino-8-(nicotinamido)-N,N-dipropyl-3H-benzo[b]azepine-4-carboxamide] |  |  | 500 to 1000 nM
13 | CCCN(CCC)C(=O)C1=Cc2ccc(S(=O)(=O)Nc3cccnc3)cc2N=C(N)C1 [Compound 1.63, 2-amino-N,N-dipropyl-8-(N-(pyridin-3-yl)sulfamoyl)-3H-benzo[b]azepine-4-carboxamide] |  |  | 500 to 1000 nM
